Data: ChEMBL document CHEMBL5244223, “l,8-Naphthalimide based DNA intercalators and anticancer agents. A systematic review from 2007 to 2017” (Eur J Med Chem, 2018)
In brackets after ≈: the same amount, converted by molar mass.

Legend:
K562 = experiment: Antiproliferative activity against human K562 cells assessed as inhibition of cell proliferation incubated for 48 hrs by MTT assay; assay type: functional, cell-based; conditions: K562, 48 h
[1] = Antiproliferative activity against human QSG7701 cells assessed as inhibition of cell proliferation incubated for 48 hrs by MTT assay; assay type: toxicity, cell-based
HepG2 = experiment: Antiproliferative activity against human HepG2 cells assessed as inhibition of cell proliferation incubated for 48 hrs by MTT assay; assay type: functional, cell-based; conditions: HepG2, 48 h
MDA-MB-231 = experiment: Antiproliferative activity against human MDA-MB-231 cells assessed as inhibition of cell proliferation incubated for 48 hrs by MTT assay; assay type: functional, cell-based; conditions: MDA-MB-231, 48 h
HCT-116 = experiment: Antiproliferative activity against human HCT-116 cells assessed as inhibition of cell proliferation incubated for 48 hrs by MTT assay; assay type: functional, cell-based; conditions: HCT-116, 48 h
SMMC-7721 = experiment: Antiproliferative activity against human SMMC-7721 cells assessed as inhibition of cell proliferation incubated for 48 hrs by MTT assay; assay type: functional, cell-based; conditions: SMMC-7721, 48 h
Candida albicans = experiment: Antifungal activity against Candida albicans MTCC 227 assessed as zone of inhibition at 100 ug/ml by well diffusion assay; assay type: functional; conditions: read-out: IZ
Saccharomyces cerevisiae = experiment: Antifungal activity against Saccharomyces cerevisiae MTCC 36 assessed as zone of inhibition at 100 ug/ml by well diffusion assay; assay type: functional; conditions: read-out: IZ
Aspergillus niger = experiment: Antifungal activity against Aspergillus niger MTCC 282 assessed as zone of inhibition at 100 ug/ml by well diffusion assay; assay type: functional; conditions: read-out: IZ
Escherichia coli [2] = experiment: Antibacterial activity against Escherichia coli MTCC 443 assessed as zone of inhibition at 50 ug/ml by well diffusion assay; assay type: functional; conditions: read-out: IZ
[3] = tested on: Staphylococcus epidermidis; experiment: Antibacterial activity against Staphylococcus epidermidis MTCC 435 assessed as zone of inhibition at 50 ug/ml by well diffusion assay; assay type: functional; conditions: read-out: IZ
Rhizopus arrhizus = experiment: Antifungal activity against Rhizopus oryzae MTCC 262 assessed as zone of inhibition at 100 ug/ml by well diffusion assay; assay type: functional; conditions: read-out: IZ
Staphylococcus aureus [4] = experiment: Antibacterial activity against Staphylococcus aureus MTCC 96 assessed as zone of inhibition at 50 ug/ml by well diffusion assay; assay type: functional; conditions: read-out: IZ
Pseudomonas aeruginosa [5] = experiment: Antibacterial activity against Pseudomonas aeruginosa MTCC 741 assessed as zone of inhibition at 50 ug/ml by well diffusion assay; assay type: functional; conditions: read-out: IZ
[6] = Cytotoxicity against human QSG7701 cells assessed as inhibition of cell growth incubated for 48 hrs by MTT assay; assay type: toxicity, cell-based
Calf thymus DNA = experiment: Binding affinity to calf thymus DNA assessed as DNA intercalation by measuring change in melting temperature by thermal denaturation assay; assay type: nucleic-acid assay; conditions: Bos taurus
Escherichia coli [7] = experiment: Antibacterial activity against Escherichia coli MTCC 443 assessed as inhibition of bacterial growth by agar well diffusion assay; assay type: functional
Pseudomonas aeruginosa [8] = experiment: Antibacterial activity against Pseudomonas aeruginosa MTCC 741 assessed as inhibition of bacterial growth by agar well diffusion assay; assay type: functional
[9] = tested on: Staphylococcus epidermidis; experiment: Antibacterial activity against Staphylococcus epidermidis MTCC 435 assessed as inhibition of bacterial growth by agar well diffusion assay; assay type: functional
Staphylococcus aureus [10] = experiment: Antibacterial activity against Staphylococcus aureus MTCC 96 assessed as inhibition of bacterial growth by agar well diffusion assay; assay type: functional

SMILES	IC50 (K562) [µM]	IC50 at 48 h [1] [µM]	IC50 (HepG2) [µM]	IC50 (MDA-MB-231) [µM]	IC50 (HCT-116) [µM]	IC50 (SMMC-7721) [µM]	zone of inhibition at 100 µg/mL (Candida albicans) [mm]	zone of inhibition at 100 µg/mL (Saccharomyces cerevisiae) [mm]	zone of inhibition at 100 µg/mL (Aspergillus niger) [mm]	zone of inhibition at 50 µg/mL (Escherichia coli [2]) [mm]	zone of inhibition at 50 µg/mL [3] [mm]	zone of inhibition at 100 µg/mL (Rhizopus arrhizus) [mm]	zone of inhibition at 50 µg/mL (Staphylococcus aureus [4]) [mm]	zone of inhibition at 50 µg/mL (Pseudomonas aeruginosa [5]) [mm]	also measured
CCCCCCCNC(=O)Nc1cc2c3c(cccc3c1)C(=O)N(CCN(C)C)C2=O	> 50	> 50	> 50	> 50	> 50	> 50	–	–	–	–	–	–	–	–	–
CN(C)CCNC(=O)Nc1cc2c3c(cccc3c1)C(=O)N(CCN(C)C)C2=O	8.62	> 50	> 50	> 50	8.62	8.62	–	–	–	–	–	–	–	–	–
CCC1=C(C(=O)OC)C(CN2C(=O)c3cccc4cccc(c34)C2=O)NC(=S)N1 (stereo not drawn)	–	–	–	–	–	–	12	12	12	12	15	12	15	12	–
NCCCNCCCCNCCCN1C(=O)c2cccc3cccc(c23)C1=O	–	–	–	–	–	–	–	–	–	–	–	–	–	–	IC50 at 48 h [6]: > 50 µM
CN(C)CCN1C(=O)c2cccc3cc(NC(=O)CNCCCCNCCCCNCCCCN)cc(c23)C1=O	6.42	6.42	6.42	6.42	6.42	6.42	–	–	–	–	–	–	–	–	–
CN(C)CCN1C(=O)c2cccc3cc(NC(=O)NCCCN)cc(c23)C1=O	> 50	> 50	> 50	> 50	> 50	> 50	–	–	–	–	–	–	–	–	–
CN(C)CCN1C(=O)c2cccc3cc(NC(=O)CNCCCNCCCNCCCN)cc(c23)C1=O	6.42	6.42	6.42	6.42	6.42	6.42	–	–	–	–	–	–	–	–	–
COC(=O)C1=C(C)NC(=O)NC1CN1C(=O)c2cccc3cccc(c23)C1=O (stereo not drawn)	–	–	–	–	–	–	12	12	12	12	15	12	15	12	–
CCC1=C(C(=O)Oc2ccccc2)C(CN2C(=O)c3cccc4cccc(c34)C2=O)NC(=O)N1 (stereo not drawn)	–	–	–	–	–	–	12	12	12	12	15	12	15	12	–
CN(C)CCN1C(=O)c2cccc3cc(NC(=O)NCCCCN)cc(c23)C1=O	> 50	> 50	> 50	> 50	> 50	> 50	–	–	–	–	–	–	–	–	–
CCCC1=C(C(=O)OC)C(CN2C(=O)c3cccc4cccc(c34)C2=O)NC(=S)N1 (stereo not drawn)	–	–	–	–	–	–	12	12	12	12	15	12	15	12	–
Clc1ccccc1C(c1ccccc1)(c1ccccc1)n1ccnc1 [CLOTRIMAZOLE]	–	–	–	–	–	–	22	22	22	–	–	22	–	–	–
CCOC(=O)C1=C(CC)NC(=S)NC1CN1C(=O)c2cccc3cccc(c23)C1=O (stereo not drawn)	–	–	–	–	–	–	12	12	12	12	15	12	15	12	–
CCOC(=O)C1=C(CC)NC(=O)NC1CN1C(=O)c2cccc3cccc(c23)C1=O (stereo not drawn)	–	–	–	–	–	–	12	12	12	12	15	12	15	12	–
CCCC1=C(C(=O)OC)C(CN2C(=O)c3cccc4cccc(c34)C2=O)NC(=O)N1 (stereo not drawn)	–	–	–	–	–	–	12	12	12	12	15	12	15	12	–
CN[C@@H]1[C@H](O[C@H]2[C@H](O[C@H]3[C@H](O)[C@@H](O)[C@H](N=C(N)N)[C@@H](O)[C@@H]3N=C(N)N)O[C@@H](C)[C@]2(O)C=O)O[C@@H](CO)[C@H](O)[C@H]1O [STREPTOMYCIN]	–	–	–	–	–	–	–	–	–	29	23	–	21	24	–
CN(C)CCN1C(=O)c2cccc3cc(NC(=O)CNCCCCNCCCN)cc(c23)C1=O	6.42	6.42	6.42	6.42	6.42	6.42	–	–	–	–	–	–	–	–	–
CN(C)CCN1C(=O)c2cccc3cc(NC(=O)NCCCNCCCCN)cc(c23)C1=O	> 50	> 50	> 50	> 50	> 50	> 50	–	–	–	–	–	–	–	–	–
CN(C)CCN1C(=O)c2cccc3cc(NC(=O)CNCCCNCCCCNCCCN)cc(c23)C1=O	6.42	6.42	6.42	6.42	6.42	6.42	–	–	–	–	–	–	–	–	–
CN(C)CCN1C(=O)c2cccc3cc(NC(=O)CNCCCN)cc(c23)C1=O	6.42	6.42	6.42	6.42	6.42	6.42	–	–	–	–	–	–	–	–	–
CN(C)CCN1C(=O)c2cccc3cc(NC(=O)NCCCNCCCNCCCCN)cc(c23)C1=O	> 50	> 50	> 50	> 50	> 50	> 50	–	–	–	–	–	–	–	–	–
CCCCNC(=O)Nc1cc2c3c(cccc3c1)C(=O)N(CCN(C)C)C2=O	> 50	> 50	> 50	> 50	> 50	> 50	–	–	–	–	–	–	–	–	–
CN(C)CCNCC(=O)Nc1cc2c3c(cccc3c1)C(=O)N(CCN(C)C)C2=O	6.42	6.42	6.42	6.42	6.42	6.42	–	–	–	–	–	–	–	–	–
O=C1c2cccc3cccc(c23)C(=O)N1c1nc(-c2cc3cc(Cl)ccc3oc2=O)cs1	–	–	–	–	–	–	–	–	–	–	–	–	–	–	ΔTm (Calf thymus DNA): 0.1 °C; MIC (Escherichia coli [7]): 18.8 mg/L (≈ 40.9 µM); MIC (Pseudomonas aeruginosa [8]): 18.8 mg/L (≈ 40.9 µM); MIC [9]: 18.8 mg/L (≈ 40.9 µM); MIC (Staphylococcus aureus [10]): 18.8 mg/L (≈ 40.9 µM)
